Our source for the Fmax rat hep, IC50 and CYP3A4 partition ratio values is patent publication US9512130B2, “Substituted imidazopyridazines” (BAYER PHARMA AKTIENGESELLSCHAFT, priority 2013, dated 2016).

Data set [1] can be described thus: In vitro metabolic stability in rat hepatocytes. The data set is classed as in vitro ADME. The conditions noted are these: maximal oral bioavailability calculated from half-life in Han Wistar rat hepatocytes, 1 μM test compound. As to the method: Investigation of In Vitro Metabolic Stability in Rat Hepatocytes (Including Calculation of Hepatic In Vivo Blood Clearance (CL)) Hepatocytes from Han Wistar rats were isolated via a 2-step perfusion method. After perfusion, the liver was carefully removed from the rat: the liver capsule was opened and the hepatocytes were gently shaken out into a Petri dish with ice-cold WME. The resulting cell suspension was filtered through sterile gaze in 50 ml falcon tubes and centrifuged at 50×g for 3 min at room temperature. The cell pellet was resuspended in 30 ml WME and centrifuged through a Percoll® gradient for 2 times at 100×g. The hepatocytes were washed again with Williams' medium E (WME) and resuspended in medium containing 5% FCS. Cell viability was determined by trypan blue exclusion. For the metabolic stability assay liver cells were distributed in WME containing 5% FCS to glass vials at a density of 1.0×10^6 vital cells/mL. […] During incubation, the hepatocyte suspensions were continuously shaken and aliquots were taken at 2, 8, 16, 30, 45 and 90 min, to which equal volumes of cold methanol were immediately added. Samples were frozen at −20° C. over night, after subsequently centrifuged for 15 minutes at 3000 rpm and the supernatant was analyzed with an Agilent 1200 HPLC-system with LCMS/MS detection. The half-life of a test compound was determined from the concentration-time plot. From the half-life the intrinsic clearances were calculated. Together with the additional parameters liver blood flow, amount of liver cells in vivo and in vitro. The hepatic in vivo blood clearance (CL) and the maximal oral bioavailability (Fmax) was calculated. The following parameter values were used: Liver blood flow—4.2 L/h/kg rat; specific liver weight—32 g/kg rat body weight; liver cells in vivo—1.1×10^8 cells/g liver, liver cells in vitro—0.5×10^6/ml.

Data set [2] deals with T1, human CYP3A4 (Homo sapiens (Human), UniProt P08684). Description: Determination of inhibitory potential on human CYP3A4. The data set is classed as in vitro ADME. To be noted: human liver microsomes, midazolam as probe substrate. The method, then:
Determination of Inhibitory Potential on Human CYP3A4
The potential of the test compound to act as a competitive inhibitor of CYP3A4 was evaluated in in vitro assays, using human liver microsomes and the reference substrate midazolam. The test compound was solved in acetonitrile. Human liver microsomal preparation (pool of HLM) was applied for the assay. A stock solution of the test compound was added to phosphate buffer containing EDTA, NADP, glucose 6-phosphate, and glucose 6-phosphate dehydrogenase. This mixture was sequentially diluted on a Genesis Workstation (Tecan, Crailsheim, FRG). After pre-warming, reaction was initiated by addition of a mixture of probe substrate (midazolam). […] The reference samples (substrate, but no inhibitor) were incubated in parallel in sextuple and contained the same amount of solvent as the test incubations. Reactions were stopped by addition of 100 μL acetonitrile containing the internal standard. Precipitated proteins were removed by centrifugation of the well plate, supernatants were analyzed by LC-MS/MS.
The CYP3A4-mediated metabolic activity in the presence of the test compounds was expressed as percentages of the corresponding reference value. A sigmoid-shaped curve was fitted to the data to calculate the enzyme inhibition parameter IC50 using a nonlinear least-squares regression analysis of the plot of percent control activity versus concentration of the test inhibitor.

Data set [3] has as its system spindle assembly checkpoint (Mps-1) in HeLa cells. Put plainly: cells. Type of data set: cell-based. The conditions noted are these: Homo sapiens; HeLa cells arrested with nocodazole, 4 h with test compound, phospho-histone H3 (Ser10) readout; read-out: SAC.
Excerpt: Spindle Assembly Checkpoint Assay
The spindle assembly checkpoint assures the proper segregation of chromosomes during mitosis. Upon entry into mitosis, chromosomes begin to condensate which is accompanied by the phosphorylation of histone H3 on serine 10. Dephosphorylation of histone H3 on serine 10 begins in anaphase and ends at early telophase. Accordingly, phosphorylation of histone H3 on serine 10 can be utilized as a marker of cells in mitosis. Nocodazole is a microtubule destabilizing substance. Thus, nocodazole interferes with microtubule dynamics and mobilises the spindle assembly checkpoint. […] An inhibition of the spindle assembly checkpoint by Mps-1 inhibitors overrides the mitotic blockage in the presence of nocodazole, and the cells complete mitosis prematurely. This alteration is detected by the decrease of cells with phosphorylation of histone H3 on serine 10. This decline is used as a marker to determine the capability of compounds of the present invention to induce a mitotic breakthrough.
Cultivated cells of the human cervical tumour cell line HeLa (ATCC CCL-2) were plated at a density of 2500 cells/well in a 384-well microtiter plate in 20 μl Dulbeco's Medium (w/o phenol red, w/o sodium pyruvate, w 1000 mg/ml glucose, w pyridoxine) supplemented with 1% (v/v) glutamine, 1% (v/v) penicillin, 1% (v/v) streptomycin and 10% (v/v) fetal calf serum. After incubation overnight at 37° C., 10 μl/well nocodazole at a final concentration of 0.1 μg/ml were added to cells. After 24 h incubation, cells were arrested at G2/M phase of the cell cycle progression. […] Images were acquired with a Perkin Elmer OPERA™ High-Content Analysis reader. Images were analyzed with image analysis software MetaXpress™ from Molecular devices utilizing the Cell Cycle application module. […] The raw assay data were further analysed by four parameter logistic regression analysis to determine the IC50 value for each tested compound.
Data set [4] has as its target T1, human CYP3A4. Description: Determination of mechanism-based inhibition of human CYP3A4. Type of data set: in vitro ADME. The conditions noted are these: irreversible CYP3A4 inactivation; inactivator molecules metabolized per CYP3A4 molecule inactivated; testosterone substrate. As to the method: Determination of Mechanism-Based Inhibition of Human CYP3A4
The test compound was incubated at 37° C. in a concentration-NADPH-, and time-dependent setting. Therefore, the test compound was incubated at 4 different concentrations (e.g.: 1, 2, 5, 10 μM) in the presence of NADPH ([…]) and regenerating system in phosphate-buffered saline ([…], pH 7.4) The highest concentration of test compound was incubated without NADPH and therefore served as the NADPH-deficient control. In addition, acetonitrile as a vehicle control (negative control) and mibefradil as positive control for irreversible CYP3A4 inactivation were also included using identical assay conditions.
Each mixture was incubated with the enzyme (preincubation) for up to 50 minutes.
Afterwards, the reaction in the main incubation was stopped by the addition of acetonitrile (containing an internal standard), the protein was allowed to precipitate by placing the mixture into an ice bath. Subsequently, the mixture was centrifuged to pelletize the protein and the supernatants were analyzed by HPLC-MS for the isoform specific metabolite e.g. […] and the remaining amount of the test compound.
In parallel the turnover of the substrate was plotted against the preincubation time.

The test system of data set [5] is HeLa cells. Put plainly: Proliferation Assay with HeLa cells. The data set is classed as cell-based. To be noted: Homo sapiens, 96 h, 4 days incubation, crystal violet staining. The method, then: After 24 hours, the cells of one plate (zero-point plate) were stained with crystal violet (see below), while the medium of the other plates was replaced by fresh culture medium (200 μl), to which the test substances were added in various concentrations (0 μM, as well as in the range of 0.01-30 μM; the final concentration of the solvent dimethyl sulfoxide was 0.5%). The cells were incubated for 4 days in the presence of test substances. […] After three washing cycles of the fixed cells with water, the plates were dried at room temperature. The cells were stained by adding 100 μl/measuring point of a 0.1% crystal violet solution (pH 3.0). After three washing cycles of the stained cells with water, the plates were dried at room temperature. The dye was dissolved by adding 100 μl/measuring point of a 10% acetic acid solution. The extinction was determined by photometry at a wavelength of 595 nm. The change of cell number, in percent, was calculated by normalization of the measured values to the extinction values of the zero-point plate (=0%) and the extinction of the untreated (0 μm) cells (=100%). The IC50 values were determined by means of a 4 parameter fit using the company's own software.

Each structure is given as a SMILES string.

T1 sequence (P08684 whole entry): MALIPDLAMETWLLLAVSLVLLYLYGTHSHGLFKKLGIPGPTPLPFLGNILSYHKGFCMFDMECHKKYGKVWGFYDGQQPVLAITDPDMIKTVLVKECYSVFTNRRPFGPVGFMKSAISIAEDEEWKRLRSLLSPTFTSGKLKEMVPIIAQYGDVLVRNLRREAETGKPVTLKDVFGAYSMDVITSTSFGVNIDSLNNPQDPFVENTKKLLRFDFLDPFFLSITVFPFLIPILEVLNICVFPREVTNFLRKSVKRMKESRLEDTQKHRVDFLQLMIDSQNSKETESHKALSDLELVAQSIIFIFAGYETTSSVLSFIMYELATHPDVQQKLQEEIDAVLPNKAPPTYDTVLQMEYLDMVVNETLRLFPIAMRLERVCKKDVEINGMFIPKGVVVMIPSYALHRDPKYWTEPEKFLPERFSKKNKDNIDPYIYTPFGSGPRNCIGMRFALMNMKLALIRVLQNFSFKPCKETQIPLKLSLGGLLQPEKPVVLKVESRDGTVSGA

On to `COc1ccc(Oc2cc(NCC3COC3)c3ncc(-c4ccc(C(=O)NC5CC5)c(C)c4)n3n2)cc1F` [Example 1, N-cyclopropyl-4-{6-(3-fluoro-4-methoxyphenoxy)-8-[(oxetan-3-ylmethyl)amino]imidazo[1,2-b]pyridazin-3-yl}-2-methylbenzamide], for which, in data set [1], the Fmax rat hep was 44%. For the same compound, the IC50 in data set [2] was above 5000 nM; in data set [3], 0.97 nM; in data set [5] it was 2.9 nM. For the same compound, in data set [4], the CYP3A4 partition ratio amounted to 105.
As for `COc1ccc(Oc2cc(NCCC(F)(F)F)c3ncc(-c4ccc(C(=O)NC5CC5)c(C)c4)n3n2)c(F)c1F` [Example 2, N-cyclopropyl-4-{6-(2,3-difluoro-4-methoxyphenoxy)-8-[(3,3,3-trifluoropropyl)amino]imidazo[1,2-b]pyridazin-3-yl}-2-methylbenzamide], the Fmax rat hep in data set [1] is given as 72%. The compound further showed an IC50 in data set [5] of 7.8 nM.
Turning to `COc1ccc(Oc2cc(NCC3CCOCC3)c3ncc(-c4ccc(C(=O)NC5CC5)c(C)c4)n3n2)c(F)c1F` [Example 3, N-cyclopropyl-4-{6-(2,3-difluoro-4-methoxyphenoxy)-8-[(tetrahydro-2H-pyran-4-ylmethyl)amino]imidazo[1,2-b]pyridazin-3-yl}-2-methylbenzamide], the Fmax rat hep in data set [1] is 39%. Besides, the IC50 is above 10000 nM in data set [2], 0.08 nM in data set [3] and 18.1 nM in data set [5]. Also, the CYP3A4 partition ratio in data set [4] amounted to 33.
In the case of `Cc1cc(-c2cnc3c(NCCC(F)(F)F)cc(Oc4cccc(F)c4)nn23)ccc1C(=O)NC1CC1` [Ref., N-cyclopropyl-4-{6-(3-fluorophenoxy)-8-[(3,3,3-trifluoropropyl)amino]imidazo[1,2-b]pyridazin-3-yl}-2-methylbenzamide, reference compound], the Fmax rat hep in data set [1] is 38%. The IC50 is above 10000 nM in data set [2], 0.52 nM in data set [3] and 23 nM in data set [5]. In data set [4], the CYP3A4 partition ratio is recorded as 3.
